Data reported in patent publication US10463730B2 (priority 2003, dated 2019).

Tested on: xenogeneic GI-101A solid breast carcinoma tumors
Design: species or system nu-/nu-mice
Conditions: in vivo

## Nc1nc2c(ncn2COC(CO)CO)c(=O)[nH]1 [PBS+GCV, gancyclovir]
  Increase of average volume of tumors: 91.8%
